From paper PMC5981617, “Targeted Delivery of Cell Penetrating Peptide Virus-like Nanoparticles to Skin Cancer Cells” (Scientific Reports, 2018)
Where a name gives a salt, the structure may show the parent alone. No end group written: not given here. *: point of attachment. FITC = O=C1OC2(c3ccc(O)cc3Oc3cc(O)ccc32)c2ccc(NC(=S)*)cc21

Tests used:
Assay type in all cases: cell-based, human
A431 cells [1] = test: Endocytosis inhibitory assay (entry of FITC-peptide, fluorescence microscopy); settings: 30 min pre-treatment, then FITC-NRPDSAQFWLHH 0.25 mM, 16 h, 37 °C; CPZ 6 µg/mL, MβCD 1.5 mM, Cyt D 10 µg/mL, genistein 200 µM
Experimental: Four endocytosis inhibitors [Cyt D (10 µg/mL; Calbiochem, San Diego, California, USA), CPZ (6 µg/mL; Santa Cruz Biotechnology, Dallas, Texas, USA), MβCD (1.5 mM; Sigma Aldrich, St. Louis, Missouri, USA) and genistein (200 µM; Calbiochem, San Diego, California, USA)] were used to study the energy-dependent endocytosis of peptide […] into A431 cells. The cells (200,000 cells/well) were seeded onto sterile glass coverslips which had been placed in a six-well plate, and incubated at 37 °C for overnight. The medium was then removed and the cells were pretreated with the inhibitors at 37 °C for 30 min. After the pretreatment with inhibitors, FITC-[…] (0.25 mM) was added to the cells and incubated for 16 h at 37 °C in the presence of inhibitors. After removing the medium, the cells were washed, fixed and stained with Hoechst 33342. The cells were mounted onto a glass slide and examined under a fluorescence microscope.

A431 cells [2] = test: MTT assay, cell viability in the presence of endocytosis inhibitors; settings: Cyt D 10 µg/mL, genistein 200 µM, CPZ 6 µg/mL, MβCD 1.5 mM, n = 3
HT29 cells = test: Internalisation of FITC-labelled peptide in cell line with lower EGFr expression; settings: 0.25 mM, 37 °C, 16 h; HT29 9 × 10^3 EGFr/cell; fluorescence microscopy
Experimental: (§1) A431 and HT29 cell lines (200,000 cells/well) were seeded onto sterile glass coverslips in a six-well plate and incubated overnight at 37 °C. After changing the medium, peptide FITC-[…] (0.25 mM) was added to the cell lines and incubated at 37 °C for 16 h in a CO2 incubator. The cells were then washed, fixed, stained with Hoechst 33342, and viewed under a fluorescence microscope. The amount of phage internalised into A431 and HT29 cells (1 × 10^6 cells) which had been incubated with the purified phage (1 × 10^12 pfu) at 37 °C for 12 h was measured with the phage titration assay as described above.

NHDF cells = test: Internalisation of FITC-labelled peptide, fluorescence microscopy; settings: 0.25 mM, 37 °C, 16 h
Experimental: (§2) The selective internalisation property of peptide […] was tested on NHDF and A431 cells. These cells (200,000 cells/well) were seeded separately onto sterile glass coverslips which had been placed in a six-well plate, and incubated overnight at 37 °C. After changing the medium, the cells were added with FITC-conjugated peptide (FITC-[…]; 0.25 mM; Mimotopes Pty Ltd, Clayton, Victoria, Australia), and incubated for 16 h at 37 °C. The cells were then washed 3 times with PBS and fixed with paraformaldehyde [3.7% (w/v)]. Hoechst 33342 was added and incubated for 10 min to stain the cell nuclei. The cells were mounted onto a glass slide and observed under a fluorescence microscope.

A431 cells [3] = test: as above; settings: 0.25 mM, 37 °C, 16 h
Experimental: as §2, §1

Compound	Effect of endocytosis inhibitor on internalisation of peptide NRPDSAQFWLHH (green granular appearance) (A431 cells [1])	Viability of A431 cells in the presence of inhibitor (A431 cells [2])	Internalisation of FITC-labelled peptide into HT29 cells (HT29 cells)	Internalisation of FITC-labelled peptide into NHDF cells (NHDF cells)	Internalisation of FITC-labelled peptide into A431 cells (A431 cells [3])
CN(C)CCCN1c2ccccc2Sc2ccc(Cl)cc21 [CPZ, chlorpromazine hydrochloride]	reduced drastically	over 83%			
C=C1[C@@H](C)[C@H]2[C@H](Cc3ccccc3)NC(=O)[C@]23[C@H](OC(C)=O)/C=C/[C@@](C)(O)C(=O)[C@@H](C)C/C=C/[C@H]3[C@@H]1O [Cyt D, cytochalasin D]	did not inhibit internalisation	over 83%			
O=c1c(-c2ccc(O)cc2)coc2cc(O)cc(O)c12 [genistein]	did not inhibit internalisation	over 83%			
methyl-β-cyclodextrin [MβCD]	reduced drastically	over 83%			
{FITC}-NRPDSAQFWLHH			no significant green fluorescent granules were observed	no significant fluorescent signal was observed	taken up efficiently
